Legend:
Assay in all cases: MIC of test compounds against various organisms
Type in all cases: cell-based
[1] = tested on: E. coli 7623; conditions: Escherichia coli, range stated for all organisms of the panel
Excerpt: (§1) The MIC (μg/ml) of test compounds against various organisms may be determined: S. epidermidis CL7, S. aureus WCUH29, S. pneumoniae 1629, S. pyogenes CN10, H. influenzae ATCC49247, E.faecalis 2, E. faecium 8, M. catarrhalis Ravisio, E. coli 7623.

[2] = tested on: E. faecium 8; conditions: Enterococcus faecium, range stated for all organisms of the panel
Excerpt: as §1

[3] = tested on: E.faecalis 2; conditions: Enterococcus faecalis, range stated for all organisms of the panel
Excerpt: as §1

[4] = tested on: H. influenzae ATCC49247; conditions: Haemophilus influenzae, range stated for all organisms of the panel
Excerpt: as §1

[5] = tested on: M. catarrhalis Ravisio; conditions: Moraxella catarrhalis, range stated for all organisms of the panel
Excerpt: as §1

[6] = tested on: S. aureus WCUH29; conditions: Staphylococcus aureus, range stated for all organisms of the panel
Excerpt: as §1

[7] = tested on: S. epidermidis CL7; conditions: Staphylococcus epidermidis, range stated for all organisms of the panel
Excerpt: as §1

[8] = tested on: S. pneumoniae 1629; conditions: Streptococcus pneumoniae, range stated for all organisms of the panel
Excerpt: as §1

[9] = tested on: S. pyogenes CN10; conditions: Streptococcus pyogenes, range stated for all organisms of the panel
Excerpt: as §1

Measured: MIC

COc1ccc2nccc([C@@H](O)CN3CCC(NCc4cnc5snnc5c4)C(F)C3)c2n1 (single isomer, unassigned) [Example 3]
0.06 to 16 µg/mL: all assays above
